Measurements as given in patent publication US12030892B2, “CRBN modulators” (DANA-FARBER CANCER INSTITUTE, INC., priority 2018, dated 2024).

Tests used:
BRD3 = assay: Cellular degradation assay, eGFP-BRD3BD1/BRD3BD2 mCherry reporters in Flip-In 293 cells; type: cell-based; conditions: BRD3BD1 and BRD3BD2 reporters, 5 h; both compounds active via BD1 and BD2
Procedure: (§1) IKZF1 (construct IKZF1^Δ1-82/Δ197-238/Δ256-519) BRD2BD1, BRD2BD2, BRD3BD1, BRD3BD2, BRD4BD1, and BRD4BD2 were subcloned into mammalian pcDNA5/FRT Vector (Ampicillin and Hygromycin B resistant) modified to contain MCS-eGFP-P2A-mCherry. Stable cell lines expressing eGFP-protein fusion and mCherry reporter were generated using Flip-In 293 system. Plasmid (0.3 μg) and pOG44 (4.7 μg) DNA were preincubated in 100 μL of Opti-MEM I (Gibco™ Life Technologies™) media containing 0.05 mg/ml Lipofectamine 2000 (Invitrogen™) for 20 min and added to Flip-In 293 cells containing 1.9 ml of DMEM media (Gibco™, Life Technologies™) per well in a 6-well plate format (Falcon®, 353046). […] Titrated compounds were incubated with cells for 5 h following trypsinisation and resuspension in DMEM media, transferred into 96-well plates (353910, Falcon®) and analyzed by flow cytometer (Guava© easyCyte HT, Millipore™) Signal from 5000 cells per well was acquired in singlicate or duplicate and the eGFP and mCherry florescence monitored. Data was analyzed using FlowJo® (FlowJo®, LCC). Forward and side scatter outliers, frequently associated with cell debris, were removed leaving >90% of total cells, followed by removal of eGFP and mCherry signal outliers, leaving 88-90% of total cells creating the set used for quantification. […]

BRD4 = assay: Cellular degradation assay, eGFP-BRD4BD1/BRD4BD2 mCherry reporters in Flip-In 293 cells; type: cell-based; conditions: BRD4BD1 and BRD4BD2 reporters, 5 h; compound 2 via BD1 and BD2, compound 1 via BD1
Procedure: as §1

BRD2 = assay: Cellular degradation assay, eGFP-BRD2BD1/BRD2BD2 mCherry reporters in Flip-In 293 cells; type: cell-based; conditions: BRD2BD1 and BRD2BD2 reporters, 5 h; compound 2 active via BRD2BD2
Procedure: as §1

[1] = system: bromodomain proteins BRD2, 3 and 4; assay: Change of cellular protein abundance (TMT quantitative proteomics) in Kelly cells; type: cell-based, human; conditions: 1 μM, 6 hours, compared to DMSO control
Procedure: Kelly cells were treated with DMSO control (biological triplicates) or 1 μM of inventive compound 1 or compound 2 for 6 hours (biological singlicate). Lysis buffer (8 M Urea, 50 mM NaCl, 50 mM 4-(2hydroxyethyl)-1-piperazineethanesulfonic acid (EPPS) pH 8.5, Protease and Phosphatase inhibitors from Roche) was added to the cell pellets and homogenized by 20 passes through a 21 gauge (1.25 in. long) needle to achieve a cell lysate with a protein concentration between 1-4 mg mL^−1. A Micro BCA™ assay (Pierce™) was used to determine the final protein concentration in the cell lysate. 200 μg of protein for each sample were reduced and alkylated as previously described.
Proteins were precipitated using methanol/chloroform/water (4:1:3). In brief, four volumes of methanol were added to the cell lysate, followed by one volume of chloroform, and finally three volumes of water. The mixture was vortexed and centrifuged to separate the chloroform phase from the aqueous phase. The precipitated protein was washed with three volumes of methanol, centrifuged and the resulting washed precipitated protein was allowed to air dry. Precipitated protein was resuspended in 4 M Urea, 50 mM 4-(2-hydroxyethyl)-1-piperazineethanesulfonic acid (HEPES) pH 7.4, followed by dilution to 1 M urea with the addition of 200 mM EPPS, pH 8. Proteins were first digested with LysC (1:50; enzyme:protein) for 12 hours at room temperature. The LysC digestion was diluted to 0.5 M Urea with 200 mM EPPS pH 8 followed by digestion with trypsin (1:50; enzyme:protein) for 6 hours at 37° C. Tandem mass tag (TMT) reagents (Thermo Fisher Scientific) were dissolved in anhydrous acetonitrile (ACN) according to manufacturer's instructions. Anhydrous ACN was added to each peptide sample to a final concentration of 30% v/v, and labeling was induced with the addition of TMT reagent to each sample at a ratio of 1:4 peptide:TMT label. The 10-plex labeling reactions were performed for 1.5 hours at room temperature and the reaction quenched by the addition of hydroxylamine to a final concentration of 0.3% for 15 minutes at room temperature. The sample channels were combined at a 1:1:1:1:1:1:1:1:1:1 ratio, desalted using C18 solid phase extraction cartridges (Waters) and analyzed by LC-MS for channel ratio comparison. Samples were then combined using the adjusted volumes determined in the channel ratio analysis and dried down in a speed vacuum. The combined sample was then resuspended in 1% formic acid, and acidified (pH 2-3) before being subjected to desalting with C18 SPE (Sep-Pak®, Waters). […]

DDB1ΔB-CRBN = DDB1ΔB-CRBN (Homo sapiens (Human), UniProt Q96SW2); assay: Atto565-Lenalidomide FP displacement assay (CRBN binding); conditions: for CRBN binding (in words), IC50 comparable to lenalidomide: FP displacement assay, FIG. 3A-3D; for IC50: FP displacement of 10 nM Atto565-Lenalidomide, 100 nM DDB1ΔB-CRBN, n=3; for Ki: FP displacement of Atto565-Lenalidomide
Sequence of DDB1ΔB-CRBN (Q96SW2 whole entry, stated change not applied): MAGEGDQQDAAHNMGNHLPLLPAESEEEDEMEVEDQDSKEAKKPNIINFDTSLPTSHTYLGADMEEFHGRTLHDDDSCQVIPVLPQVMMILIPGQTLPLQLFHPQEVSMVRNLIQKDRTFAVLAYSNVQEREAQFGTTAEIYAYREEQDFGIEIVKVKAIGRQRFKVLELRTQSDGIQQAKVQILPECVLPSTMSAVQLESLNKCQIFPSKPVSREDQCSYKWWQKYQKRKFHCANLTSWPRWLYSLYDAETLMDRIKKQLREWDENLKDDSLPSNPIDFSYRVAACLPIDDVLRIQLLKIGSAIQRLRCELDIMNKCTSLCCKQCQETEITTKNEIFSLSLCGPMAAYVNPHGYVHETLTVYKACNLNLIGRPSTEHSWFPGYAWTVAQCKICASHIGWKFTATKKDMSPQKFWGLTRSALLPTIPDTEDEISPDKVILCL
Procedure: Compounds in Atto565-Lenalidomide displacement assay were dispensed in a 384-well microplate (Corning, 4514) using D300e Digital Dispenser (HP) normalized to 1% DMSO into 10 nM Atto565-Leanlidomide, 100 nM DDB1ΔB-CRBN, 50 mM Tris pH 7.5, 200 mM NaCl, 0.1% Pluronic® F-68 solution (Sigma). Compound titrations were incubated for 60 min at RT. The change in fluorescence polarization was monitored using a PHERAstar® FS microplate reader (BMG Labtech) for 1 h in 120 s cycles. Data from three independent replicates (n=3) was used to estimate IC50 values using variable slope equation in GraphPad Prism 7.

MM1.S cells = assay: MM1.S cell proliferation; type: cell-based; conditions: Homo sapiens
IKZF1 = IKZF1 (Homo sapiens (Human), UniProt Q13422+Q96SW2, DEL197-238/DEL256-519); assay: Cellular degradation assay, eGFP-IKZF1/mCherry reporter in Flip-In 293 cells; type: cell-based; conditions: 5 h incubation, eGFP/mCherry relative abundance, FIG. 1A-1C
Procedure: Following 2-3 passage cycle FACS (FACSAria™ II, BD) was used to enrich for cells expressing eGFP and mCherry. […] Data was analyzed using FlowJo® (FlowJo®, LCC). […] The eGFP protein abundance relative to mCherry was then quantified as a ten-fold amplified ratio for each individual cell using the formula: 10×eGFP/mCherry. The median of the ratio was then calculated per set, normalized to the median of the DMSO ratio, and is denoted as relative abundance.

| Compound | CRBN binding (in words), IC50 comparable to lenalidomide (DDB1ΔB-CRBN) | IC50 (DDB1ΔB-CRBN) | Ki (DDB1ΔB-CRBN) | IC50 (MM1.S cells) | activity against the target IKZF1 (degradation, in words) (IKZF1) | degradation activity against BRD3 (in words) (BRD3) | degradation activity against BRD4 (in words) (BRD4) | degradation activity against BRD2 (in words) (BRD2) | change in relative abundance of endogenous bromodomain proteins (in words) [1] | degradation of common IMiD-dependent off-targets (in words) [1] |
| --- | --- | --- | --- | --- | --- | --- | --- | --- | --- | --- |
| COC(=O)C[C@@H]1N=C(c2ccc(Cl)cc2)c2c(sc(C(=O)NCCCCCOc3cc4c5c(cccc5c3)C(=O)N(C3CCC(=O)NC3=O)C4=O)c2C)-n2c(C)nnc21 (stereo partly drawn) [Compound 1, methyl 2-((6S)-4-(4-chlorophenyl)-2-((5-((2-(2,6-dioxopiperidin-3-yl)-1,3-dioxo-2,3-dihydro-1H-benzo[de]isoquinolin-5-yl)oxy)pentyl)carbamoyl)-3,9-dimethyl-6H-thieno[3,2-f][1,2,4]triazolo[4,3-a][1,4]diazepin-6-yl)acetate] | – | – | – | – | – | active | active | inactive | downregulation of bromodomain proteins BRD4 | did not induce degradation |
| Cc1sc2c(c1C)C(c1ccc(Cl)cc1)=N[C@@H](CC(=O)NCCCCCCCCNC(=O)COc1cc3c4c(cccc4c1)C(=O)N(C1CCC(=O)NC1=O)C3=O)c1nnc(C)n1-2 (stereo partly drawn) [Compound 2, 2-((S)-4-(4-chlorophenyl)-2,3,9-trimethyl-6H-thieno[3,2-f][1,2,4]triazolo [4,3-a][1,4]diazepin-6-yl)-N-(8-(2-(2-(2,6-dioxopiperidin-3-yl)-1,3-dioxo-2,3-dihydro-1H-benzo[de]isoquinolin-5-yloxy)acetamido)octyl)acetamide] | – | – | – | – | – | active | active | active | downregulation of bromodomain proteins BRD2, 3 and 4 | did not induce degradation |
| O=C1CCC(N2C(=O)c3cccc4cccc(c34)C2=O)C(=O)N1 (centres unmarked) [Compound 9, 2-(2,6-dioxopiperidin-3-yl)-1H-benzo[de]isoquinoline-1,3(2H)-dione] | potent binders of CRBN | 2.6 µM | 0.7 µM | ~21.5 µM | inactive | – | – | – | – | – |

Second part, led by results:

| CRBN binding (in words), IC50 comparable to lenalidomide (DDB1ΔB-CRBN) | IC50 (DDB1ΔB-CRBN) | Ki (DDB1ΔB-CRBN) | IC50 (MM1.S cells) | activity against the target IKZF1 (degradation, in words) (IKZF1) | Compound | degradation activity against BRD3 (in words) (BRD3) | degradation activity against BRD4 (in words) (BRD4) | degradation activity against BRD2 (in words) (BRD2) | change in relative abundance of endogenous bromodomain proteins (in words) [1] | degradation of common IMiD-dependent off-targets (in words) [1] |
| --- | --- | --- | --- | --- | --- | --- | --- | --- | --- | --- |
| potent binders of CRBN | 3.5 µM | 0.98 µM | – | inactive | O=C1CCC(N2C(=O)c3cccc4cc(O)cc(c34)C2=O)C(=O)N1 (centres unmarked) [Compound 10, 2-(2,6-dioxopiperidin-3-yl)-5-hydroxy-1H-benzo[de]isoquinoline-1,3(2H)-dione] | – | – | – | – | – |
| potent binders of CRBN | 11.4 µM | 3.2 µM | – | inactive | Nc1cc2c3c(cccc3c1)C(=O)N(C1CCC(=O)NC1=O)C2=O (centres unmarked) [Compound 11, 5-amino-2-(2,6-dioxopiperidin-3-yl)-1H-benzo[de]isoquinoline-1,3(2H)-dione] | – | – | – | – | – |
